Experimental data taken from ChEMBL document CHEMBL1135499, “Further characterization of structural requirements for ligands at the dopamine D(2) and D(3) receptor: exploring the thiophene moiety” (J Med Chem, 2002).

Experiments:
[1] = molecular target: D(2) dopamine receptor (Homo sapiens, UniProt P14416); experiment: biochemical
Description: In vitro binding affinity at human Dopamine receptor D2 expressed in CHO K1 cells was measured by its ability to displace [3H]- N-0437

[2] = molecular target: D(3) dopamine receptor (Homo sapiens, UniProt P35462); experiment: biochemical
Description: In vitro binding affinity at human Dopamine receptor D3 expressed in CHO K1 cells was measured by its ability to displace [3H]spiperone

[3] = Oral bioavailability in rat; assay type: ADME, organism-based; details: in vivo

Chain of D(3) dopamine receptor (P35462 whole entry): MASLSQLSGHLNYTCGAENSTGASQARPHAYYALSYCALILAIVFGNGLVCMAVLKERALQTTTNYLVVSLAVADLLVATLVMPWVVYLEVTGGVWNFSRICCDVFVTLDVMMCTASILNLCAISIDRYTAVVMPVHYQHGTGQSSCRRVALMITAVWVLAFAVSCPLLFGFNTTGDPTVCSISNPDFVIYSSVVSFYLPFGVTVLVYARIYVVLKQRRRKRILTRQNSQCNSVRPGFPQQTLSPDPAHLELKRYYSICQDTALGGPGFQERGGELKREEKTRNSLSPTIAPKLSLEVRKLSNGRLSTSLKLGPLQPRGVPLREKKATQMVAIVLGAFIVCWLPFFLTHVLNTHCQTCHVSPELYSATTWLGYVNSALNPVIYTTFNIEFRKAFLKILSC
Chain of D(2) dopamine receptor (P14416 whole entry): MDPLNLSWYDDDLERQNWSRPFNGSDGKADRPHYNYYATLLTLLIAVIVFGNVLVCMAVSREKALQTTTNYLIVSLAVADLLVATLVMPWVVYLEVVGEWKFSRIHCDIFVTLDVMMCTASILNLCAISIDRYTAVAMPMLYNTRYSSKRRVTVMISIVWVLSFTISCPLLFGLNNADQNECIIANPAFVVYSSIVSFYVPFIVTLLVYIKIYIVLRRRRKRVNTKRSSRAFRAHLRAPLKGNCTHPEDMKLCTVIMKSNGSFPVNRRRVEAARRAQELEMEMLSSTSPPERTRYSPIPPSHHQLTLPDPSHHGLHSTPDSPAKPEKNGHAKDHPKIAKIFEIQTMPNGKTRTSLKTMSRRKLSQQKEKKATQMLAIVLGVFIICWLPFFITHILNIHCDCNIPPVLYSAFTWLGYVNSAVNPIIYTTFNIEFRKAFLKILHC

Compound | Ki [1] [nM] | Ki [2] [nM] | bioavailability [3] [%]
CCCN1CCOC2c3ccsc3CCC21 (stereo unspecified) | 630 | 240 | 
CCCN(CCc1ccsc1)CCc1cccs1 | 1080 | 117 | 
CCCN(CCC)C1CCc2sccc2C1 (stereo unspecified) | 20 | 40 | > 10
CCCN(CCC)C1CCc2ccsc2C1 (stereo unspecified) | 27 | 28 | 10
CCCN(CCC)CC1CCc2ccsc2C1 (stereo unspecified) | 3110 | 60 | 
CCCN(CCC)CC1CCc2sccc2C1 (stereo unspecified) | 2040 | 247 | 
CCCN(CCc1ccsc1)CCc1ccsc1 | 439 | 108 | 
CCCN(CCC)[C@@H]1Cc2cccc(O)c2C[C@H]1C | 14 | 0.54 | 
c1cc2c(s1)CCC1NCCOC21 (stereo unspecified) | > 4780 | 3000 | 
Oc1ccc2c(c1)C1OCCN(CCc3cccs3)C1CC2 (racemic) | 3680 | 83 | 
Oc1ccc2c(c1)C1OCCN(CCc3ccccc3)C1CC2 (racemic) | > 3680 | 1570 | 
CCCN1CC(c2ccccc2)OC2c3cc(O)ccc3CCC21 (racemic) | 375 | 12 | 
